From ChEMBL document CHEMBL1157539, “Thousands of chemical starting points for antimalarial lead identification” (Nature, 2010) come the findings set out here.

The experiment concerns Plasmodium falciparum. Briefly: GSK_TCMDC: Inhibition of Plasmodium falciparum 3D7 in whole erythrocytes, using parasite LDH activity as an index of growth. The format is functional, organism-based. As to conditions: Plasmodium falciparum, 3D7.
`CCN1CCC(N(Cc2ccc(-c3ccc(C(F)(F)F)cc3)cc2)C(=O)Cn2c(CCc3cccc(F)c3F)cc(=O)c3cn(C)nc32)CC1` registered an XC50 of 240 nM. For `CN(C)CCC1CCN(CCS(=O)(=O)c2cccc(Nc3ccc(-c4ccsc4)cn3)c2)CC1` the value was 938 nM; for `CC(C)N(CCOc1ccc2c(c1)N(C(=O)Nc1cc(Br)cc(C(F)(F)F)c1)CC2)C(C)C`, 108 nM. In turn, `Cc1cc(N2CCCC2)nc(Nc2ccc(NC(=O)c3ccc(Br)o3)cc2)n1` came in with an XC50 of 623 nM. On to `COc1ccc2[nH]c(C(=O)Nc3cccc(-c4ccc(CN(C)C)cc4)c3)cc2c1`, for which the XC50 is 908 nM. For `COc1ccc2nccc([C@@H](O)CN3CCC(NC(=O)/C=C/c4ccc(Cl)c(C(F)(F)F)c4)CC3)c2c1` the value was 290 nM. In the case of `COc1ccc2cc(C=NNc3nc4ccccc4[nH]3)c(Cl)nc2c1`, the XC50 worked out at 653 nM. For the molecule `O=c1c(Br)ccccc1Br`, the XC50 was 795 nM. For `COc1ccc2ncc(F)c(CCN3CC(O)C(CNCc4ccc(F)cc4)C3)c2n1` (centres undefined) the value was 821 nM; for `N=C(N)Nc1ccc(OCCCCCOc2ccc(NC(=N)N)cc2)cc1`, 193 nM. For `CCN(CC)CCOc1ccc(NC(=O)c2oc3ccccc3c2C=Cc2ccccc2)cc1` the value was 223 nM. For `Cc1cccc2nc(-c3ccc(-c4cccc(C(=O)NCCN5CCCC5)c4)s3)[nH]c12` the value was 1140 nM.

As to `Cc1cc(N2CCCCC2)nc2ccc(NC(=O)c3cc(=O)c4ccccc4o3)cc12`, the XC50 stood at 716 nM.

Molecule `Cc1cccc(NC(=O)c2ccc(C(=O)NC3CCN(CC4CCCCC4)C3)cc2)c1` (centres undefined) came in with an XC50 of 923 nM.

`CCNc1cc(C(=O)N[C@@H](Cc2ccccc2)[C@H](O)CN[C@H](C)c2ccccc2)cc(N2CCCC2=O)c1` registered an XC50 of 54.3 nM.

In turn, `COc1cc2nc(N3CCC(CNC(=O)/C=C/c4ccccc4F)CC3)nc(N)c2cc1OC` came in with an XC50 of 581 nM. For `CC(C)COc1ccc(Cl)cc1Cc1ccc(-c2nc3cc(CCN(C)C)ccc3[nH]2)o1` the value was 982 nM; for `CNC(=O)c1ccccc1Nc1nc(Nc2ccc(N3CCOCC3)cc2)ncc1Cl`, 727 nM; for `COCCn1c(SC(C)C(=O)Nc2cc(C(F)(F)F)ccc2Cl)nc2ccccc2c1=O` (centres undefined), 629 nM. For `O=[N+]([O-])c1cccc(CNCC2CCN(Cc3ccc(C(F)(F)F)cc3)CC2)c1` the value was 245 nM; for `COc1ccc2ncc(F)c(NC(=O)C3CCC(NCc4cc5cc(F)cc(F)c5[nH]4)CC3)c2n1` (centres undefined), 1090 nM; for `CCOC(=O)NCC(=O)Nc1cccc(-c2cccc(-c3nc4cccc(C)c4[nH]3)c2)c1`, 740 nM. The molecule `Cc1nc(N)nc(N)c1OCCCCCCOc1ccccc1` returned an XC50 of 235 nM. For `CCN(CC1CCN(CC2(O)CCOCC2)CC1)c1cc(C)nc(Nc2ccc(Cl)cc2)n1` the value was 406 nM; for `CC(C)(C)c1ccc(CN2CCC(CNC(=O)c3cc(-c4cccc(Cl)c4)cs3)C2)cc1` (centres undefined), 1160 nM. For `N=C(N)Nc1nc(CCCCCCCCc2csc(NC(=N)N)n2)cs1` the value was 598 nM; for `CCOc1c(OC)ccc2c1CCN(CCN1CCC(NC(=O)c3ccc(-c4cccc(C(F)(F)F)c4C(F)(F)F)cc3)CC1)C2`, 728 nM; for `Cc1ccc(C[C@@H](C)NC[C@H](O)c2cccc(C(F)(F)F)c2)cc1`, 876 nM. For `CCc1cccc(OCCCON2C(=N)N=C(N)NC2(C)C)c1` the value was 3.2 nM; for `CCn1cnc2c(N3CCCC3=O)cc(C(=O)N[C@@H](Cc3ccccc3)[C@H](O)CNC3CCCCC3)cc21`, 574 nM. The molecule `Cc1cccc(CC(=N)NCCCCCCNC(=N)Cc2cccc(C)c2)c1` came in with an XC50 of 167 nM. For `Cc1cc(O)c(-c2ccc(S(=O)(=O)c3ccc(Cl)cc3)cc2)c(C)n1` the value was 877 nM; for `CCCCCCNC(=O)C1Cc2c([nH]c3cc(Cl)ccc23)C2(CCN(Cc3ccccc3)CC2)N1` (centres undefined), 903 nM; for `CC[C@H]1CN2CC[C@@H]1C[C@H]2[C@H](O)c1cc(N2CCSCC2)nc2ccc(OC)cc12`, 199 nM.
